Source: patent US4731486A, “Hydroformylation using low volatile phosphine ligands” (Union Carbide Corporation, priority 1986, dated 1988)

Experiments:
[1] = Batch hydroformylation of butene-1 (Examples 14, 19); conditions: 100° C., 300 ppm Rh
Experimental: (§1) Each rhodium catalytic precursor solution so prepared was then employed to hydroformylate propylene in a magnetically stirred, 100 mL capacity, stainless steel autoclave which was attached to a gas manifold for introducing gases to the desired partial pressures. The autoclave was also equipped with a pressure calibrator for determining reaction pressure to ±0.01 psia. and a platinum resistance thermometer for determining reactor solution temperatures to ±0.10° C. The reactor was heated externally by two 300 watt heating bands. The reactor solution temperature was controlled by a platinum resistance sensor connected to an external proportional temperature controller for controlling the temperature of the external band heaters.
In each non-aqueous hydroformylation reaction, about 15 milliliters (about 14 grams) of the rhodium catalytic precursor solution so prepared was charged to the autoclave reactor under nitrogen and heated to the reaction temperature employed (as given in Table 1 below). The reactor was then vented down to 5 psig. and a premixed gas mixture of 1:1:1 carbon monoxide:hydrogen:propylene was introduced into the reactor via the gas manifold (partial pressures given in Table 1) and the propylene so hydroformylated.
(§2) The hydroformylation reaction rate in gram moles per liter per hour of C4 aldehydes produced was determined from sequential 5 psia. pressure drops in the reactor spanning the nominal operating pressure in the reactor, while the mole ratio of linear (n-butyraldehyde) to branched (2-methylpropionaldehyde) product was measured by gas chromatography and the results are given in Table 1 below.
The same procedure and conditions employed in Example 1 of preparing various rhodium catalytic precursor solutions using rhodium dicarbonyl acetylacetonate, about a 3:1 (wt.:wt. ratio) mixture of Texanol® and CARBOWAX® TPEG-990 (about 25 wt. %) as the solubilizing agent, and a monosulfonated triphenylphosphine sodium salt ligand having the formula [drawing 26] and hydroformylating an olefin was repeated employing the various rhodium complex catalyst precursor solutions and using different alpha olefins as the hydroformylation feedstocks and the reaction conditions as shown in Table 14 below.
A comparison of the catalytic activity of aqueous and non-aqueous solutions of monosulfonated triphenylphosphine sodium salt ligand promoted catalysts in hydroformylating various molecular weight alphe-olefins was determined as follows.
The same procedure and conditions employed in Example 1 of preparing rhodium catalytic precursor solutions, using rhodium dicarbonyl acetylacetonate, monosulfonated triphenylphosphine sodium salt having the formula as shown in Example 4 in either a non-aqueous organic solubilizing agent solution or water, as given in Table 19 below, and hydroformylating the various alpha-olefins was repeated employing the various rhodium complex precursor solutions and hydroformylation reaction conditions as shown in Table 19 below. Both the aqueous and non-aqueous hydroformylation reactions were conducted under identical conditions with regard to temperature, rhodium and ligand concentration, hydrogen and carbon monoxide partial pressure and olefin concentration.

[2] = Batch hydroformylation of dodecene-1 (Examples 13, 14, 18, 19)
[3] = Batch hydroformylation of tetradecene-1 (Example 14); conditions: Texanol/TPEG-990 3:1; 100° C.; 300 ppm Rh; 8.7 wt. % ligand; 75 psia 4:1 H2:CO
Experimental: as §1
In each non-aqueous hydroformylation reaction, about 15 milliliters (about 14 grams) of the rhodium catalytic precursor solution so prepared was charged to the autoclave reactor under nitrogen and heated to the reaction temperature employed (as given in Table 1 below). […]
as §2, with “below. […]” for “below.”

[4] = Continuous single pass hydroformylation of butene-1 (Examples 3, 4, 5, 7, 12); conditions: Texanol/PEG-600 10:1
Experimental: Continuous hydroformylation of butene-1 a monosulfonated triphenylphosphine metal salt ligand was conducted in the following manner.
The non-aqueous hydroformylation was conducted in a glass reactor operating in a continuous single pass butene-1 hydroformylation mode. The reactor consisted of a three-ounce pressure bottle submersed in an oil bath with a lass front for viewing. About 20-mL of a freshly prepared rhodium catalytic precursor solution was charged to the reactor with a syringe, after purging the system with nitrogen. […] After closing the reactor, the system was again purged with nitrogen and the oil bath was heated to furnish the desired hydroformylation reaction temperature. The hydroformylation reaction was conducted at a total gas pressure of about 160 psig., the partial pressures of hydrogen, carbon monoxide, and butene-1 being given in Table 3 below, the remainder being nitrogen and aldehyde product.
The flows of the feed gases (carbon monoxide, hydrogen, butene-1 and nitrogen) were controlled individually with mass flow meters and the feed gases dispersed into the precursor solution via microporous stainless steel spargers. The unreacted portion of the feed gases was stripped out with the product C5 aldehydes and the outlet gas analyzed over about 12 days of continuous operation.

[5] = Solubility of metal salt ligands in nonanal with added solubilizing agent; format: physicochemical; conditions: 25° C.; nonanal with 1:4 CARBOWAX TPEG-900/TERGITOL NP-9
[6] = Solubility of TPPMS-Na in various aldehydes with solubilizing agent mixture; format: physicochemical; conditions: TERGITOL 24-L-75N/CARBOWAX TPEG-900 (4:1)
Text: The solubilizing agent mixture was employed in a 1:2 weight:weight ratio with the various aldehydes.

[7] = HPLC analysis of ligand concentration in hydroformylation reaction mediums; format: physicochemical; conditions: both reactors, six days of operation
[8] = Continuous catalyst liquid recycle hydroformylation of octene-1 (Example 6)
Text: In a continuous catalyst liquid recycle manner, an olefin starting material of octene-1 was hydroformylated for six days as follows.
The liquid recycle reactor system employed contained two 2.8 liter stainless steel stirred tank reactors, connected in series, each containing a vertically mounted agitator and a circular tubular sparger near the bottom of the reactor for feeding the syn gas. The sparger contained a plurality of holes of sufficient size to provide the desired gas flow into the liquid body. Reactor 1 contained a silicone oil shell as means of bringing the contents of the reactors up to reaction temperature while the reaction solution in Reactor 2 was heated by an electrical heater. Both reactors contained internal cooling coils for controlling the reaction temperature. Reactors 1 and 2 were connected via a line to transfer any unreacted gases from reactor 1 to reactor 2 and were further connected via a line so that a portion of the liquid reaction solution containing aldehyde product and catalyst from reactor 1 could be pumped into reactor 2 wherein the unreacted olefin of reactor 1 is further hydroformylated in reactor 2.
Each reactor also contained a pneumatic liquid level controller for automatic control of the liquid levels in the reactors. Reactor 1 further contained a line for introducing the liquid olefin using a metering pump, and a line for introducing syn gas through the sparger, while make up syn gas was added to reactor 2 via the same transfer line carrying the unreacted syn gas from reactor 1. Reactor 2 also contained a blow-off vent for removal of the unreacted gases. A line from the bottom of reactor 2 was connected to the top of a vaporizer so that a portion of the liquid reaction solution could be pumped from reactor 2 to the vaporizer. The vaporizer was maintained at reduced pressure with the help of a vacuum pump. Vaporized aldehyde was disengaged from the non-volatilized components of the liquid reaction solution in the gas-liquid separator part of the vaporizer. The remaining non-volatilized catalyst containing liquid reaction solution was pumped through a recycle line back into reactor 1. The recycle line also contained a pneumatic liquid level controller. The vaporized aldehyde product was passed into a water-cooled condenser, liquified and collected in a product receiver.

[9] = Texanol/TPEG-990 3:1, 8.7 wt. % ligand, 75 psia 4:1 H2:CO
[10] = aqueous (water as solvent), 90 psia 1:1 H2:CO
[11] = non-aqueous (Texanol/Carbowax TPEG990 2.6:1), 90 psia 1:1 H2:CO
[12] = 25 ppm Rh, 100 °C, Ligand/Rhodium 10, H2 20, CO 40 psia, 5.0 ml olefin
[13] = 200 ppm Rh, 100 °C, Ligand/Rhodium 100, H2 10, CO 40 psia, 5.0 ml olefin
[14] = 200 ppm Rh, 100 °C, Ligand/Rhodium 100, H2 100, CO 40 psia, 5.0 ml olefin
[15] = 200 ppm Rh, 120 °C, Ligand/Rhodium 200, H2 20, CO 40 psia, 5.0 ml olefin
[16] = 500 ppm Rh, 70 °C, Ligand/Rhodium 50, H2 20, CO 40 psia, 5.0 ml olefin
[17] = Texanol/TPEG-990 3:1, 100° C., 300 ppm Rh, 8.7 wt. % ligand, 75 psia 4:1 H2:CO
[18] = aqueous (water as solvent), 100° C., 300 ppm Rh, 90 psia 1:1 H2:CO
[19] = heptanal, CARBOWAX PEG-600, 100° C., 200 ppm Rh, 60 psia 2:1 H2:CO, two liquid organic layers
[20] = heptanal, TERGITOL 15-S-3/NIAX PPG-1025/Dimethyl Sulfoxide (4:1:1), 100° C., 200 ppm Rh, 60 psia 2:1 H2:CO
[21] = heptanal, TERGITOL 24-L-75N/CARBOWAX TPEG-990 (4:1), 100° C., 200 ppm Rh, 60 psia 2:1 H2:CO
[22] = heptanal, TERGITOL NP-9, 100° C., 200 ppm Rh, 60 psia 2:1 H2:CO
[23] = non-aqueous (Texanol/Carbowax TPEG990 2.6:1), 100° C., 300 ppm Rh, 90 psia 1:1 H2:CO
[24] = day 0.9, […], CO 51, H2 59, C4H8 20 psia
[25] = day 2.0, 101 °C, CO 51, H2 47, C4H8 22 psia
[26] = day 3.0, 101 °C, CO 20, H2 53, C4H8 24 psia
[27] = day 4.0, 101 °C, CO 20, H2 30, C4H8 39 psia
[28] = day 5.6, 101 °C, CO 15, H2 64, C4H8 31 psia
[29] = day 5.9 (so in the source), 101 °C, CO 15, H2 63, C4H8 31 psia
[30] = day 1, reactors 80.1/85.8, CO 17.0/9.9 psia
[31] = day 2, reactors 80.0/85.6, CO 7.8/2.2 psia
[32] = day 3, reactors 80.1/85.7, CO 8.1/6.5 psia
[33] = day 6, reactors 80.0/85.0, CO 10.1/8.3 psia

O=S(=O)([O-])c1cccc(P(c2ccccc2)c2ccccc2)c1.[Na+]
Linear/Branched Aldehyde Mole Ratio [1, 9]: 12.8 | Reaction Rate [1, 9]: 5.96 G moles/L/hr | Linear/Branched Aldehyde Mole Ratio [1, 10]: 37.1 | Reaction Rate [1, 10]: 0.44 G Moles/L/Hr | Linear/Branched Aldehyde Mole Ratio [1, 11]: 5.1 | Reaction Rate [1, 11]: 6.94 G Moles/L/Hr | Linear/Branched Aldehyde Mole Ratio [2, 12]: 3.4 | Reaction Rate (C13 aldehydes) [2, 12]: 1.37 Gram/Moles L/Hr | Linear/Branched Aldehyde Mole Ratio [2, 13]: 16.9 | Reaction Rate (C13 aldehydes) [2, 13]: 1.13 Gram/Moles L/Hr | Linear/Branched Aldehyde Mole Ratio [2, 14]: 4.1 | Reaction Rate (C13 aldehydes) [2, 14]: 1.41 Gram/Moles L/Hr | Linear/Branched Aldehyde Mole Ratio [2, 15]: 9.56 | Reaction Rate (C13 aldehydes) [2, 15]: 1.24 Gram/Moles L/Hr | Linear/Branched Aldehyde Mole Ratio [2, 16]: 5.5 | Reaction Rate (C13 aldehydes) [2, 16]: 0.51 Gram/Moles L/Hr | Linear/Branched Aldehyde Mole Ratio [2, 17]: 10.8 | Reaction Rate [2, 17]: 1.04 G moles/L/hr | Linear/Branched Aldehyde Mole Ratio [2, 18]: 43.4 | Reaction Rate [2, 18]: 0.03 G Moles/L/Hr | Linear/Branched Aldehyde Mole Ratio [2, 19]: 12.0 | Reaction Rate [2, 19]: 0.72 G moles/L/hr | Linear/Branched Aldehyde Mole Ratio [2, 20]: 13.2 | Reaction Rate [2, 20]: 0.51 G moles/L/hr | Linear/Branched Aldehyde Mole Ratio [2, 21]: 13.6 | Reaction Rate [2, 21]: 0.62 G moles/L/hr | Linear/Branched Aldehyde Mole Ratio [2, 22]: 14.2 | Reaction Rate [2, 22]: 0.77 G moles/L/hr | Linear/Branched Aldehyde Mole Ratio [2, 23]: 6.6 | Reaction Rate [2, 23]: 4.49 G Moles/L/Hr | Linear/Branched Aldehyde Mole Ratio [3]: 12.6 | Reaction Rate [3]: 0.65 G moles/L/hr | Linear/Branched Aldehyde Mole Ratio [4, 24]: 7.68 | Rate (C5 aldehydes), daily average [4, 24]: 1.68 gmoles/L/Hr | Linear/Branched Aldehyde Mole Ratio [4, 25]: 9.21 | Rate (C5 aldehydes), daily average [4, 25]: 1.81 gmoles/L/Hr | Linear/Branched Aldehyde Mole Ratio [4, 26]: 21.08 | Rate (C5 aldehydes), daily average [4, 26]: 1.60 gmoles/L/Hr | Linear/Branched Aldehyde Mole Ratio [4, 27]: 19.83 | Rate (C5 aldehydes), daily average [4, 27]: 2.50 gmoles/L/Hr | Linear/Branched Aldehyde Mole Ratio [4, 28]: 23.74 | Rate (C5 aldehydes), daily average [4, 28]: 2.05 gmoles/L/Hr | Linear/Branched Aldehyde Mole Ratio [4, 29]: 22.82 | Rate (C5 aldehydes), daily average [4, 29]: 2.06 gmoles/L/Hr | Metal Salt Solubility [5]: 25 Wt. % | TPPMS-Na Solubility at 25 deg. C. ([6]; Butyraldehyde): > 20 Weight Percent | TPPMS-Na Solubility at 25 deg. C. ([6]; Heptanal): 18 Weight Percent | TPPMS-Na Solubility at 25 deg. C. ([6]; Nonanal): 12 Weight Percent | TPPMS-Na Solubility at 25 deg. C. ([6]; Tridecanal): 8 Weight Percent | TPPMS-Na Solubility at 25 deg. C. ([6]; Valeraldehyde): > 20 Weight Percent | change in ligand concentration of reaction mediums [7]: no significant change | C9 Aldehydes (rate) [8, 30]: 1.02 gmoles/L/hr | Linear/Branched Aldehyde Ratio [8, 30]: 14.0 | C9 Aldehydes (rate) [8, 31]: 0.84 gmoles/L/hr | Linear/Branched Aldehyde Ratio [8, 31]: 27.2 | C9 Aldehydes (rate) [8, 32]: 0.81 gmoles/L/hr | Linear/Branched Aldehyde Ratio [8, 32]: 24.7 | C9 Aldehydes (rate) [8, 33]: 1.02 gmoles/L/hr | Linear/Branched Aldehyde Ratio [8, 33]: 22.5
